Laboratory results reported in patent US4190666A, “Anti-inflammatory 4,5-diarly-2-(substituted-thio)imidazoles and their corresponding sulfoxides and sulfones” (E. I. Du Pont de Nemours and Company, priority 1978, dated 1980).
Read-outs that look alike come from different tables or passages of the source.

How the values were obtained:
[1] = system: established adjuvant-induced arthritis in rats; test: Established adjuvant-induced arthritis in rats (therapeutic, paw volume); format: in vivo, Charles River Lewis male rats; conditions: Rattus norvegicus
[2] = system: immunologic reactions / rheumatoid arthritis; conditions: background; cited from earlier work
[3] = system: non-established adjuvant-induced arthritis in rats; test: Non-established adjuvant-induced arthritis in rats (prevention of development, paw volume); format: in vivo, Charles River Lewis male rats; conditions: for ED50: Rattus norvegicus, read-out: ED50% non-established arthritis; for effectiveness in preventing development of arthritis compared with treating established arthritis: non-established vs established arthritis, rats
Protocol: Non-Established Adjuvant-Induces Arthritis in Rats
A test used primarily to determine the effects of compounds on the immunological reactions involved in the induction process and to prevent the development of arthritis.
Charles River Lewis male rats (130-150 grams) are injected subcutaneously in the plantar area of the right hind paw with 0.1 ml of adjuvant (Difco heat-killed, lyophilized Mycobacterium butyricum suspended in mineral oil 5 mg/ml). 40 Non-arthritic controls are injected with mineral oil. Groups of 20 rats are given single, daily oral doses of compound (in PVA-Acacia vehicle, 10 ml/kg) or vehicle by gavage beginning immediately following paw injection for a total of 14 doses. The paw volume of the uninjected (left) hind paw is measured 24 hours after the last dose using a Ugo Basile Volume differential meter Model 7101. The ED50% decrease from control is determined as described above.

[4] = system: plaque forming (antibody producing) spleen cells of rats with adjuvant-induced arthritis; test: Modified Jerne spleen cell hemolytic plaque assay; format: in vivo, rats (Charles River Lewis); conditions: for effect on number of plaque forming cells (PFC): arthritic rats
Protocol: MODIFIED JERNE SPLEEN CELL HEMOLYTIC PLAQUE ASSAY
A modification of the technique described by N. K. Jerne and A. A. Nordin (Science, 140, 450, 1963) was used in these studies. Rats (Charles River Lewis) with adjuvant-induced arthritis (and non-arthritic controls) were dosed orally ounce per day with PVA-Acacia vehicle* or compounds in vehicle from day 14 (following adjuvant injection) to day 20. The animals were sensitized with sheep red blood cells (SRBC) (0.2 ml of a 10% suspension=[…]) I.V. on day 17. The SRBC (Microbiological Associates) were washed 3 times in 0.9% sodium chloride solution prior to injection. On day 21 the rats were anesthetized with 1% sodium pentobarbital I.P. and the spleens were removed. Each spleen was placed on a stainless steel screen suspended over a plastic beaker in an ice bath and gently macerated with a glass syringe plunger. The cells were washed through the mesh into the beaker using a pasteur pipette to apply about 10 ml of Eagle's Minimal Essential Medium (MEM) during the maceration process until only fibrous material remained on the screen. Large particles were allowed to settle out for about 5 minutes and about 5 ml of supernatant was transferred to a plastic tube. Dilutions of 1:10 and 1:20 were made in cold MEM.
Plating: 2 ml of 0.7% Agarose (1.4% diluted 1:2 with 2X Eagles MEM) and 0.2 ml of a 10% SRBC suspension were pre-warmed in a 45° C. water bath. 20 Lambda of spleen cell dilution were added, mixed gently and poured into a supporting layer of 2 ml of 1.4% Agarose in a 60×15 mm plastic petri plate. Plates were incubated at 37° C. for 1.5 hours in a humidified incubator. 1.5 ml of guinea pig complement (diluted 1:10 with MEM) was added and incubation was continued for 1 hour longer.
Zones of hemolysis (plaques) per plate were counted without magnification against a diffuse light source. Assuming each plaque to have resulted from hemolysin produced by a single spleen cell, the number of plaque forming cells (PFC) per million spleen cells was calculated for each dilution. The statistical calculations (mean, standard error and "t" test) included the PFC/million count for each dilution of each spleen.

[5] = system: B lymphocytes in spleen cell suspensions; conditions: for effect on B lymphocyte proportion / lymphocyte population: arthritic rats
[6] = po, Table V, read-out: ED50% established arthritis
[7] = Table V, oral, 14 daily doses from adjuvant injection
[8] = po, established arthritis, 7 daily doses, ED50% decrease from control paw volume, Tables I-III, read-out: Adjuvant Arthritis (ED50%)

SMILES: O=P1(N(CCCl)CCCl)NCCCO1 (centres unmarked) [Cyclophosphamide, reference compound]
- ED50 [1, 6]: 10 mg/kg
- effectiveness in treatment of rheumatoid arthritis [2]: effective in the treatment of rheumatoid arthritis
- toxicity for wide-spread use [2]: too toxic for wide-spread use
- ED50 [3, 7]: 1.5 mg/kg
- effectiveness in preventing development of arthritis compared with treating established arthritis [3]: more effective in preventing the development of arthritis in rats than in treating established arthritis in rats
- effect on number of plaque forming cells (PFC) [4]: reduced the PFC far below normal
- mean plaque forming cells per million spleen cells (N = 20) ([4]; daily oral dose 5.0 mg/kg): 25 cells per million spleen cells
- effect on B lymphocyte proportion / lymphocyte population [5]: reduced the B lymphocyte proportion to below normal
- mean % B cells ([5]; daily oral dose 5 mg/kg): 25%

SMILES: FC(F)C(F)(F)Sc1nc(-c2ccccc2)c(-c2ccccc2)[nH]1 [Example 18, 4,5-Diphenyl-2-(1,1,2,2-tetrafluoroethylthio)imidazole]
- ED50 [1, 6]: 0.75 mg/kg
- ED50 [1, 8]: 0.75 mg/kg
- ED50 [3, 7]: 2.3 mg/kg
- mean plaque forming cells per million spleen cells (N = 20) ([4]; daily oral dose 1.5 mg/kg): 197 cells per million spleen cells
- mean plaque forming cells per million spleen cells (N = 20) ([4]; daily oral dose 15 mg/kg): 320 cells per million spleen cells
- mean % B cells ([5]; daily oral dose 1.5 mg/kg, pooled data from 2 experiments (N = 10)): 37%
- mean % B cells ([5]; daily oral dose 15 mg/kg, pooled data from 2 experiments (N = 10)): 34%

SMILES: FC(F)C(F)(F)Sc1nc(-c2ccc(Cl)cc2)c(-c2ccc(Cl)cc2)[nH]1 [Example 39]
- ED50 [1, 6]: 0.2 mg/kg
- ED50 [1, 8]: 0.3 mg/kg
- ED50 [3, 7]: 0.06 mg/kg
- mean plaque forming cells per million spleen cells (N = 20) ([4]; daily oral dose 0.1 mg/kg): 788 cells per million spleen cells
- mean plaque forming cells per million spleen cells (N = 20) ([4]; daily oral dose 1.0 mg/kg): 488 cells per million spleen cells
- mean % B cells ([5]; daily oral dose 0.2 mg/kg, pooled data from 2 experiments (N = 10)): 37%
- mean % B cells ([5]; daily oral dose 2.0 mg/kg, pooled data from 2 experiments (N = 10)): 35%

SMILES: O=S(=O)(c1nc(-c2ccc(F)cc2)c(-c2ccc(F)cc2)[nH]1)C(F)(F)C(F)F [Example 71, 4,5-bis(4-fluorophenyl)-2-(1,1,2,2-tetrafluoroethylsulfonyl)imidazole]
- ED50 [1, 6]: 0.03 mg/kg
- ED50 [1, 8]: 0.025 mg/kg
- ED50 [3, 7]: 0.03 mg/kg
- mean plaque forming cells per million spleen cells (N = 20) ([4]; daily oral dose 0.03 mg/kg): 499 cells per million spleen cells
- mean plaque forming cells per million spleen cells (N = 20) ([4]; daily oral dose 0.3 mg/kg): 439 cells per million spleen cells
- mean % B cells ([5]; daily oral dose 0.03 mg/kg, pooled data from 3 experiments (N = 15)): 38%
- mean % B cells ([5]; daily oral dose 0.3 mg/kg, pooled data from 3 experiments (N = 15)): 41%

SMILES: O=S(=O)(c1nc(-c2ccc(Cl)cc2)c(-c2ccccc2)[nH]1)C(F)(F)C(F)F [Example 86, 4(or 5)-(4-chlorophenyl)-5(or 4)-phenyl-2-(1,1,2,2-tetrafluoroethylsulfonyl)imidazole]
- ED50 [1, 8]: 0.065 mg/kg
- mean plaque forming cells per million spleen cells (N = 20) ([4]; daily oral dose 0.07 mg/kg): 412 cells per million spleen cells
- mean plaque forming cells per million spleen cells (N = 20) ([4]; daily oral dose 0.7 mg/kg): 367 cells per million spleen cells
- mean % B cells ([5]; daily oral dose 0.1 mg/kg): 48%
- mean % B cells ([5]; daily oral dose 1.0 mg/kg): 42%

SMILES: COc1ccc2c(c1)c(CC(=O)O)c(C)n2C(=O)c1ccc(Cl)cc1 [Indomethacin, reference compound]
- ED50 ([1]; Table V, oral, read-out: ED50% established arthritis): 0.3 mg/kg
- effect on immunologic reactions in rheumatoid inflammation [2]: have no effect on these immunologic reactions
- ED50 ([3]; po): 3 mg/kg
- effectiveness in preventing development of arthritis compared with treating established arthritis [3]: less effective in preventing the development of arthritis in rats than in treating the inflammation in established arthritis
- effect on number of plaque forming cells (PFC) [4]: had no effect on the number of PFC
- mean plaque forming cells per million spleen cells (N = 20) ([4]; daily oral dose 1.0 mg/kg): 694 cells per million spleen cells
- effect on B lymphocyte proportion / lymphocyte population [5]: had no effect on the lymphocyte population
- mean % B cells ([5]; daily oral dose 0.5 mg/kg): 57%

SMILES: CCCCC1C(=O)N(c2ccccc2)N(c2ccccc2)C1=O [Phenylbutazone]
- ED50 [1, 6]: 10 mg/kg
- effect on immunologic reactions in rheumatoid inflammation [2]: have no effect on these immunologic reactions
- ED50 [3, 7]: 35 mg/kg
- effectiveness in preventing development of arthritis compared with treating established arthritis [3]: less effective in preventing the development of arthritis in rats than in treating the inflammation in established arthritis
- mean % B cells ([5]; daily oral dose 20 mg/kg): 53%

SMILES: CC(=O)Oc1ccccc1C(=O)O [aspirin]
- effect on immunologic reactions in rheumatoid inflammation [2]: have no effect on these immunologic reactions

SMILES: CC(C)Cc1ccc(C(C)C(=O)O)cc1 (centres unmarked) [ibuprofen]
- effect on immunologic reactions in rheumatoid inflammation [2]: have no effect on these immunologic reactions
